Assays:
[1] = Storage stability of the crystal form at 40° C. and 75% RH for six months, XRPD comparison (FIG. 5); type: physicochemical; conditions: stored at 40° C. and 75% RH for six months
Description: FIG. 5 is an X-ray powder diffraction (XRPD) comparison diagram of crystal form A of inositol nicotinate provided by the present invention stored for half a year at 40° C. and under the condition of 75% of relative humidity.
XRPD analysis: It was detected at room temperature using a Bruker D8 advance type diffractometer from German Brook Instrument Co., Ltd by Cu-Kα rays (λ=1.5418 Å), with a 2θ angle scanning from 3° to 40°, and the scanning speed was 0.2°/second.
The crystal form A of inositol nicotinate obtained in the above examples was stored under conditions of 40° C. and 75% RH for six months.

[2] = cited from earlier work

SMILES: O=C(O[C@H]1[C@H](OC(=O)c2cccnc2)[C@@H](OC(=O)c2cccnc2)[C@H](OC(=O)c2cccnc2)[C@@H](OC(=O)c2cccnc2)[C@H]1OC(=O)c1cccnc1)c1cccnc1 [crystal form A of inositol nicotinate, cis-1,2,3,5-trans-4,6-cyclohexanehexol niacinate]
- crystal form after storage (physical stability, XRPD comparison) [1]: has not changed

SMILES: O=C(O[C@H]1[C@H](OC(=O)c2cccnc2)[C@@H](OC(=O)c2cccnc2)[C@H](OC(=O)c2cccnc2)[C@@H](OC(=O)c2cccnc2)[C@H]1OC(=O)c1cccnc1)c1cccnc1 [Inositol nicotinate, cis-1,2,3,5-trans-4,6-cyclohexanehexol niacinate]
- solubility in chloroform ([2]; chloroform): very slightly soluble
- solubility in ethanol ([2]; ethanol and other organic solvents): insoluble
- solubility in dimethyl sulfoxide ([2]; hot dimethylformamide or dimethyl sulfoxide): only soluble
- solubility in hot dimethylformamide ([2]; hot dimethylformamide): only soluble
- solubility in water ([2]; water): insoluble

From patent publication US20180273480A1, “INOSITOL NICOTINATE CRYSTALLINE FORM A AND PREPARATION METHOD THEREFOR” (WEIFANG SHENGYU PHARMA CO., LTD., priority 2015, published 2018)
